Earlier results as cited in patent publication US20180055813A1, “COMPOSITIONS AND METHODS FOR TREATING ATRIAL FIBRILLATION” (Edge Therapeutics, Inc., priority 2016, published 2018).
Read-outs that look alike come from different tables or passages of the source. Values belong to the compound of their own block, whether it stands above or below them.

What was measured:
[1] = system: high-plateau action potentials
[2] = for incidence of postoperative AF: AFIST I, patients >60 years
[3] = system: voltage-dependent sodium channels; conditions: relative to phenytoin
[4] = phase III clinical trials, compared with placebo
[5] = system: R-type calcium current
[6] = biological target: N-type calcium current (Homo sapiens, UniProt Q00975); conditions: at 300 nM to 500 nM
[7] = system: K+ and Na+ currents, and L, P/Q and T-type calcium currents

Sequence of N-type calcium current (Q00975 whole entry): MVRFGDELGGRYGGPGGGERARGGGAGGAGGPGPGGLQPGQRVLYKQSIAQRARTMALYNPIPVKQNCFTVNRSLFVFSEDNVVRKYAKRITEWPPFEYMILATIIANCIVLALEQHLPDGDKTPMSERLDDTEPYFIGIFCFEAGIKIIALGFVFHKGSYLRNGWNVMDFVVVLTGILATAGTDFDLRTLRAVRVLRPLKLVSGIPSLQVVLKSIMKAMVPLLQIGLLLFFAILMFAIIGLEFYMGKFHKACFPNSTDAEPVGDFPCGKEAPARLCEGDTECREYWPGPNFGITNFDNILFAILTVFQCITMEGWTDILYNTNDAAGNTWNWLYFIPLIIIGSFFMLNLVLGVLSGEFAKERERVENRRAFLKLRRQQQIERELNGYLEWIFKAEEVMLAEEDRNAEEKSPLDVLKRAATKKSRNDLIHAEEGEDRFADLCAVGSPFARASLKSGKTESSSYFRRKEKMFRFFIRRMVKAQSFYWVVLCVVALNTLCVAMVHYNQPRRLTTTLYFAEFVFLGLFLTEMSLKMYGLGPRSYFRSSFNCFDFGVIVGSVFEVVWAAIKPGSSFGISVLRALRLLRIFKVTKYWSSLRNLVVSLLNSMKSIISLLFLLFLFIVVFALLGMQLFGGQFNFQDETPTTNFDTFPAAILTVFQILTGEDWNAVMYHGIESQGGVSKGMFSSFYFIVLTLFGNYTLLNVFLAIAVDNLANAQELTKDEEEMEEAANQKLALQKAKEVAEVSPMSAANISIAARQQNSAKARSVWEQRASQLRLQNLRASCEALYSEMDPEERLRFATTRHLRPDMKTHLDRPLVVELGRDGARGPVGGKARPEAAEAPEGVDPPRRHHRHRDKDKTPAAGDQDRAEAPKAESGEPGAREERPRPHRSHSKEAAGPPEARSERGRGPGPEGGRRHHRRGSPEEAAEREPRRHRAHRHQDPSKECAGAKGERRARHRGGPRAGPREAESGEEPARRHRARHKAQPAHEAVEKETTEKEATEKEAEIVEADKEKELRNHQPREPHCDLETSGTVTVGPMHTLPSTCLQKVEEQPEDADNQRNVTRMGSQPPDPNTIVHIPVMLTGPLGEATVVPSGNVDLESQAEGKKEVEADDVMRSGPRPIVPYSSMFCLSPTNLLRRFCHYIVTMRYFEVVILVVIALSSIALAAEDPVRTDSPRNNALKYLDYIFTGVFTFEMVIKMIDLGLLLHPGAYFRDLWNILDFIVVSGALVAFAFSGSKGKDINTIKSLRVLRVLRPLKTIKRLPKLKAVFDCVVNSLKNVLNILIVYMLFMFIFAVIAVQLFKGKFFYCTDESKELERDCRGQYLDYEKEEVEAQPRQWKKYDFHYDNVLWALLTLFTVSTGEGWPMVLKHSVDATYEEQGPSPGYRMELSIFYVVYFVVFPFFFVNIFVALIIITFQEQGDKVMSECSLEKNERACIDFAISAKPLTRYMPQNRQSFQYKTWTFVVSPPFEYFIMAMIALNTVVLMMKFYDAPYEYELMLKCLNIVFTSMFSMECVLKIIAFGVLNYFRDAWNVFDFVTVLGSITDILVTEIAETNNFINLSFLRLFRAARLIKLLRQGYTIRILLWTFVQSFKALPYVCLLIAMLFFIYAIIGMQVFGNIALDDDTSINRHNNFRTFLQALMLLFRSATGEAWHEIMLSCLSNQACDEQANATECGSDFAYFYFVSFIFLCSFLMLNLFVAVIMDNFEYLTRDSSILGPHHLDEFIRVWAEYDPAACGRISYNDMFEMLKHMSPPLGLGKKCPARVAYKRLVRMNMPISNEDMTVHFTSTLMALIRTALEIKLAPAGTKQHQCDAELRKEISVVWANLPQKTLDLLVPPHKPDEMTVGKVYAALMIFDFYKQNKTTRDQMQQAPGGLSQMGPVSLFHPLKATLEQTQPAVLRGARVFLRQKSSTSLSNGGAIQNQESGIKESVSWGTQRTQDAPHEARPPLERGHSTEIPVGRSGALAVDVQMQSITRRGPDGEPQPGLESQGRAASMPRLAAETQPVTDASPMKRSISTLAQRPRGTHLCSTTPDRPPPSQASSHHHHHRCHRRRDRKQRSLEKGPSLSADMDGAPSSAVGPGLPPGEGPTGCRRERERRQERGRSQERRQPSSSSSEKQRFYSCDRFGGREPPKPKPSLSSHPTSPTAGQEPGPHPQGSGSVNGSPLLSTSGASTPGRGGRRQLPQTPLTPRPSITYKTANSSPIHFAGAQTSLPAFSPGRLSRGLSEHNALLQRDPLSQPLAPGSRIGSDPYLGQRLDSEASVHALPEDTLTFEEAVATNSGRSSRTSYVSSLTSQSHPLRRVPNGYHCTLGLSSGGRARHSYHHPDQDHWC

Compound: Cc1oc2ccccc2c1Cc1cc(I)c(OCC(=O)O)c(I)c1 [KB130015, 2-methyl-3-(3,5-diiodo-4-carboxymethoxybenzyl)benzofuran]
QT lengthening / prolongation of high-plateau action potentials [1]: devoid of QT lengthening effects

Compound: CCCCc1oc2ccccc2c1C(=O)c1cc(I)c(OCCN(CC)CC)c(I)c1 [amiodarone]
incidence of postoperative AF, patients ([2]; 1-week pre-operative oral regimen, placebo 53%): 25%
incidence of postoperative AF ([2]; amiodarone alone): 35%
incidence of postoperative AF ([2]; amiodarone with concomitant postoperative β-blockers): 16%
incidence of postoperative AF, patients ([2]; postoperative intravenous treatment, placebo 47%): 35%
incidence of postoperative AF, patients ([2]; treatment throughout the peri-operative period, placebo 25%): 16%

faster rate of binding to depolarized channels compared to phenytoin [3]: 5 fold
Compound: NC(=O)N1c2ccccc2C=Cc2ccccc21 [carbamazepine]
lower affinity for depolarized channels compared to phenytoin [3]: 3 fold

Compound: CCCCc1oc2ccc(NS(C)(=O)=O)cc2c1C(=O)c1ccc(OCCCN(CCCC)CCCC)cc1 [dronedarone, n-(2-butyl-3-(4-(3-dibutylaminopropoxy)-benzoyl)benzofuran-5-yl)-methanesulfonamide]
lowering of risk of AF relapse [4]: 25%

Compound: CCOC(=O)[C@H](CCc1ccccc1)N[C@@H](C)C(=O)N1CCC[C@H]1C(=O)O [enalapril]
relative risk reduction for the development of AF (compared to placebo): 78%

Compound: CCCCC1=NC2(CCCC2)C(=O)N1Cc1ccc(-c2ccccc2-c2nnn[nH]2)cc1 [irbesartan]
prevention of recurrence of AF (irbesartan plus amiodarone versus amiodarone alone): more effectively than amiodarone alone

Compound: SNX-482
block of R-type calcium current ([5]; neurohypophysial nerve endings, 40 nM concentration): blocks
effect on R-type current ([5]; preparations of the neuronal cell body, retinal ganglion cells and hippocampal pyramidal cells): no significant effect
N-type calcium current blocked [6]: 30-50%
effect on K+ and Na+ currents, and L, P/Q and T-type calcium currents [7]: no effect
